Legend:
[1] = test system: cocklebur; experiment: Test B pre/postemergence cocklebur; assay type: in vivo, Xanthium strumarium
How it was run: (§1)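 Test chemicals in a non-phytotoxic solvent mixture with surfactant were sprayed preemergence onto planted seeds and postemergence onto plants 2 to 18 cm tall (1- to 4-leaf stage). After twelve to sixteen days in a greenhouse, injury was visually rated against untreated controls from 0 (no effect) to 10 (complete control).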

[2] = test system: corn; experiment: Test B pre/postemergence corn; assay type: in vivo, Zea mays
How it was run: as §1

[3] = test system: crabgrass; experiment: Test B pre/postemergence crabgrass; assay type: in vivo, Digitaria sanguinalis
How it was run: as §1

[4] = test system: giant foxtail; experiment: Test B pre/postemergence giant foxtail; assay type: in vivo, Setaria faberii
How it was run: as §1

[5] = test system: morningglory; experiment: Test B pre/postemergence morningglory; assay type: in vivo, Ipomoea hederacea
How it was run: as §1

[6] = test system: pigweed; experiment: Test B pre/postemergence pigweed; assay type: in vivo, Amaranthus retroflexus
How it was run: as §1

[7] = test system: rape; experiment: Test B pre/postemergence rape; assay type: in vivo, Brassica napus
How it was run: as §1

[8] = test system: soybean; experiment: Test B pre/postemergence soybean; assay type: in vivo, Glycine max
How it was run: as §1

[9] = test system: sugar beet; experiment: Test B pre/postemergence sugar beet; assay type: in vivo, Beta vulgaris
How it was run: as §1

[10] = test system: velvetleaf; experiment: Test B pre/postemergence velvetleaf; assay type: in vivo, Abutilon theophrasti
How it was run: as §1

[11] = test system: wheat; experiment: Test B pre/postemergence wheat; assay type: in vivo, Triticum aestivum
How it was run: as §1

[12] = test system: wild oat; experiment: Test B pre/postemergence wild oat; assay type: in vivo, Avena fatua
How it was run: as §1

[13] = test system: purple nutsedge; experiment: Test B pre/postemergence purple nutsedge; assay type: in vivo, Cyperus rotundus
How it was run: as §1

[14] = test system: rice; experiment: Test B flood test rice; assay type: in vivo, Oryza sativa
How it was run: (§2)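 Plants were grown to the 2-leaf stage before treatment with test chemical, then held in a greenhouse for twelve to sixteen days. Injury was visually rated against untreated controls on a 0–10 scale, where 0 is no effect and 10 is complete control.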

[15] = test system: smallflower flatsedge; experiment: Test B flood test smallflower flatsedge; assay type: in vivo, Cyperus difformis
How it was run: as §2

[16] = test system: duck salad; experiment: Test B flood test duck salad; assay type: in vivo, Heteranthera limosa
How it was run: as §2

[17] = Postemergence, Rate 62 g/ha, scale 0 to 10, 0 is no effect, 10 is complete control
[18] = Postemergence, Rate 250 g/ha, scale 0 to 10, 0 no effect, 10 complete control
[19] = Preemergence, Rate 62 g/ha, scale 0 to 10 (0 no effect, 10 complete control)
[20] = Preemergence, Rate 125 g/ha, scale 0 to 10 (0 no effect, 10 complete control)
[21] = Preemergence, Rate 250 g/ha, scale of 0 to 10 where 0 is no effect and 10 is complete control
[22] = Preemergence, Rate 500 g/ha, scale 0 (no effect) to 10 (complete control)
[23] = Rate 125 g/ha, Postemergence, scale 0 to 10, 0 no effect, 10 complete control
[24] = Rate 500 g/ha, Postemergence, scale 0 to 10, 0 no effect, 10 complete control
[25] = Rate 125 g/ha, Postemergence section (flood test species), scale 0 to 10, 0 no effect, 10 complete control
[26] = Rate 500 g/ha, listed under Postemergence (flood test species), scale 0 to 10, 0 no effect, 10 complete control
[27] = flood test, listed under Postemergence, Rate 250 g/ha, scale 0 to 10, 0 no effect, 10 complete control

With Cc1cccc(C(C)C)c1-n1c(=O)on(C(=O)N(c2ccccc2)C(C)C)c1=O [Compound 66] the “Cocklebur plant response rating” value [1, 17] was 0, the “Cocklebur plant response rating” value [1, 18] was 0 and the “Cocklebur plant response rating” value [1, 19] was 0. The “Plant response rating, Cocklebur” value [1, 20] was 0, the “Plant response rating, Cocklebur” value [1, 21] was 0 and the “Cocklebur plant response rating” value [1, 22] was 0. The “Cocklebur plant response rating” value [1, 23] was 0, the “Cocklebur plant response rating” value [1, 24] was 0 and the “Corn plant response rating” value [2, 17] was 0. The “Corn plant response rating” value [2, 18] was 0, the “Corn plant response rating” value [2, 19] was 0 and the “Plant response rating, Corn” value [2, 20] was 0. For the same molecule, the “Plant response rating, Corn” value [2, 21] was 0, the “Corn plant response rating” value [2, 22] was 0 and the “Corn plant response rating” value [2, 23] was 0. For the same molecule, the “Corn plant response rating” value [2, 24] was 2, the “Crabgrass plant response rating” value [3, 17] was 0 and the “Crabgrass plant response rating” value [3, 18] was 0. The “Crabgrass plant response rating” value [3, 19] was 0, the “Plant response rating, Crabgrass” value [3, 20] was 2 and the “Plant response rating, Crabgrass” value [3, 21] was 4. The “Crabgrass plant response rating” value [3, 22] was 8, the “Crabgrass plant response rating” value [3, 23] was 0 and the “Crabgrass plant response rating” value [3, 24] was 0. For the same molecule, the “Giant foxtail plant response rating” value [4, 17] was 0, the “Giant foxtail plant response rating” value [4, 18] was 0 and the “Giant foxtail plant response rating” value [4, 19] was 4. For the same molecule, the “Plant response rating, Giant foxtail” value [4, 20] was 4, the “Plant response rating, Giant foxtail” value [4, 21] was 6 and the “Giant foxtail plant response rating” value [4, 22] was 9. The “Giant foxtail plant response rating” value [4, 23] was 0, the “Giant foxtail plant response rating” value [4, 24] was 0 and the “Morningglory plant response rating” value [5, 17] was 0. The “Morningglory plant response rating” value [5, 18] was 1, the “Morningglory plant response rating” value [5, 19] was 0 and the “Plant response rating, Morningglory” value [5, 20] was 0. For the same molecule, the “Plant response rating, Morningglory” value [5, 21] was 0, the “Morningglory plant response rating” value [5, 22] was 0 and the “Morningglory plant response rating” value [5, 23] was 1. The “Morningglory plant response rating” value [5, 24] was 2, the “Redroot pigweed plant response rating” value [6, 17] was 0 and the “Redroot pigweed plant response rating” value [6, 18] was 0. The “Redroot pigweed plant response rating” value [6, 19] was 0, the “Plant response rating, Redroot pigweed” value [6, 20] was 0 and the “Plant response rating, Redroot pigweed” value [6, 21] was 0. For the same molecule, the “Redroot pigweed plant response rating” value [6, 22] was 0, the “Redroot pigweed plant response rating” value [6, 23] was 0 and the “Redroot pigweed plant response rating” value [6, 24] was 4. The “Rape plant response rating” value [7, 17] was 0, the “Rape plant response rating” value [7, 18] was 0 and the “Rape plant response rating” value [7, 19] was 0. For the same molecule, the “Plant response rating, Rape” value [7, 20] was 0, the “Plant response rating, Rape” value [7, 21] was 0 and the “Rape plant response rating” value [7, 22] was 0. For the same molecule, the “Rape plant response rating” value [7, 23] was 0, the “Rape plant response rating” value [7, 24] was 0 and the “Soybean plant response rating” value [8, 17] was 1. For the same molecule, the “Soybean plant response rating” value [8, 18] was 2, the “Soybean plant response rating” value [8, 19] was 0 and the “Plant response rating, Soybean” value [8, 20] was 0. The “Plant response rating, Soybean” value [8, 21] was 0, the “Soybean plant response rating” value [8, 22] was 0 and the “Soybean plant response rating” value [8, 23] was 1. For the same molecule, the “Soybean plant response rating” value [8, 24] was 3, the “Sugarbeets plant response rating” value [9, 17] was 0 and the “Sugarbeets plant response rating” value [9, 18] was 0. The “Sugarbeets plant response rating” value [9, 19] was 0, the “Plant response rating, Sugarbeets” value [9, 20] was 0 and the “Plant response rating, Sugarbeets” value [9, 21] was 0. The “Sugarbeets plant response rating” value [9, 22] was 0, the “Sugarbeets plant response rating” value [9, 23] was 0 and the “Sugarbeets plant response rating” value [9, 24] was 0. The “Velvetleaf plant response rating” value [10, 17] was 0, the “Velvetleaf plant response rating” value [10, 18] was 0 and the “Velvetleaf plant response rating” value [10, 19] was 0. For the same molecule, the “Plant response rating, Velvetleaf” value [10, 20] was 0, the “Plant response rating, Velvetleaf” value [10, 21] was 0 and the “Velvetleaf plant response rating” value [10, 22] was 0. The “Velvetleaf plant response rating” value [10, 23] was 0, the “Velvetleaf plant response rating” value [10, 24] was 2 and the “Wheat plant response rating” value [11, 17] was 0. The “Wheat plant response rating” value [11, 18] was 0, the “Wheat plant response rating” value [11, 19] was 0 and the “Plant response rating, Wheat” value [11, 20] was 0. For the same molecule, the “Plant response rating, Wheat” value [11, 21] was 0, the “Wheat plant response rating” value [11, 22] was 0 and the “Wheat plant response rating” value [11, 23] was 0. For the same molecule, the “Wheat plant response rating” value [11, 24] was 0, the “Wild oats plant response rating” value [12, 17] was 0 and the “Wild oats plant response rating” value [12, 18] was 0. The “Wild oats plant response rating” value [12, 19] was 0, the “Plant response rating, Wild oats” value [12, 20] was 0 and the “Plant response rating, Wild oats” value [12, 21] was 0. The “Wild oats plant response rating” value [12, 22] was 2, the “Wild oats plant response rating” value [12, 23] was 0 and the “Wild oats plant response rating” value [12, 24] was 0. For the same molecule, the “Nutsedge plant response rating” value [13, 17] was 0, the “Nutsedge plant response rating” value [13, 18] was 0 and the “Nutsedge plant response rating” value [13, 19] was 0. For the same molecule, the “Plant response rating, Nutsedge” value [13, 20] was 0, the “Nutsedge plant response rating” value [13, 22] was 6 and the “Nutsedge plant response rating” value [13, 23] was 0. The “Nutsedge plant response rating” value [13, 24] was 0, the “Rice plant response rating” value [14, 17] was 0 and the “Rice plant response rating” value [14, 25] was 0. The “Rice plant response rating” value [14, 26] was 0, the “Rice plant response rating” value [14, 27] was 0 and the “S. Flatsedge plant response rating” value [15, 17] was 0. For the same molecule, the “S. Flatsedge plant response rating” value [15, 25] was 0, the “S. Flatsedge plant response rating” value [15, 26] was 3 and the “S. Flatsedge plant response rating” value [15, 27] was 2. The “Ducksalad plant response rating” value [16, 17] was 0, the “Ducksalad plant response rating” value [16, 25] was 0 and the “Ducksalad plant response rating” value [16, 26] was 2. The “Ducksalad plant response rating” value [16, 27] was 0.
